Literature values in patent US6982284B1, “Compositions and methods for modification of skin lipid content” (Applied Genetics Incorporated Dermatics, priority 1999, dated 2006).

Tested on: living skin equivalents

Compound | glucosylceramides and ceramides, most notably ceramides 6 and 7 (50 ug/ml) | effect on lipid composition
O=C1O[C@H]([C@@H](O)CO)C(O)=C1O [Vitamin C] | increases | 
Vitamin E |  | no effect
